From PubChem BioAssay AID2060898 (Molecular Pharmacology Branch, DTP, NCI, 2025)

Tested on: 616215-338-R-J1-PDC complex spheroid viability
Experiment: Anticancer human tumor 616215-338-R-J1-PDC patient-derived colon adenocarcinoma cell line growth inhibition [RAS]
Conditions: for IC50: curve of first compound; for viability, T/C: stronger effect = lower value
Procedure, shortened: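 Agents were tested in combination matrices in half-log decrements from a top concentration at or near clinical Cmax (10 microM if undetermined). Targets were multi-cell spheroids of tumour lines plus HUVEC and MSC stromal cells.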

[1] = second compound 0.000949 µM, first compound 0.00316 µM
[2] = second compound 0.000949 µM, first compound 0.01 µM
[3] = second compound 0.000949 µM, first compound 0.0316 µM
[4] = second compound 0.000949 µM, first compound 0.1 µM
[5] = second compound 0.000949 µM, first compound 0.316 µM
[6] = second compound 0.000949 µM, first compound 1 µM
[7] = second compound 0.003 µM, first compound 0.00316 µM
[8] = second compound 0.003 µM, first compound 0.01 µM
[9] = second compound 0.003 µM, first compound 0.0316 µM
[10] = second compound 0.003 µM, first compound 0.1 µM
[11] = second compound 0.003 µM, first compound 0.316 µM
[12] = second compound 0.003 µM, first compound 1 µM
[13] = second compound 0.00949 µM, first compound 0.00316 µM
[14] = second compound 0.00949 µM, first compound 0.01 µM
[15] = second compound 0.00949 µM, first compound 0.0316 µM
[16] = second compound 0.00949 µM, first compound 0.1 µM
[17] = second compound 0.00949 µM, first compound 0.316 µM
[18] = second compound 0.00949 µM, first compound 1 µM
[19] = second compound 0.03 µM, first compound 0.00316 µM
[20] = second compound 0.03 µM, first compound 0.01 µM
[21] = second compound 0.03 µM, first compound 0.0316 µM
[22] = second compound 0.03 µM, first compound 0.1 µM
[23] = second compound 0.03 µM, first compound 0.316 µM
[24] = second compound 0.03 µM, first compound 1 µM
[25] = second compound 0.0949 µM, first compound 0.00316 µM
[26] = second compound 0.0949 µM, first compound 0.01 µM
[27] = second compound 0.0949 µM, first compound 0.0316 µM
[28] = second compound 0.0949 µM, first compound 0.1 µM
[29] = second compound 0.0949 µM, first compound 0.316 µM
[30] = second compound 0.0949 µM, first compound 1 µM
[31] = second compound 0.3 µM, first compound 0.00316 µM
[32] = second compound 0.3 µM, first compound 0.01 µM
[33] = second compound 0.3 µM, first compound 0.0316 µM
[34] = second compound 0.3 µM, first compound 0.1 µM
[35] = second compound 0.3 µM, first compound 0.316 µM
[36] = second compound 0.3 µM, first compound 1 µM
[37] = second compound 0.000949 µM, first compound 3.16 µM
[38] = second compound 0.000949 µM, first compound 10 µM
[39] = second compound 0.003 µM, first compound 3.16 µM
[40] = second compound 0.003 µM, first compound 10 µM
[41] = second compound 0.00949 µM, first compound 3.16 µM
[42] = second compound 0.00949 µM, first compound 10 µM
[43] = second compound 0.03 µM, first compound 3.16 µM
[44] = second compound 0.03 µM, first compound 10 µM
[45] = second compound 0.0949 µM, first compound 3.16 µM
[46] = second compound 0.0949 µM, first compound 10 µM
[47] = second compound 0.3 µM, first compound 3.16 µM
[48] = second compound 0.3 µM, first compound 10 µM
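Further: spheroids exposed to agents for seven days before viability readout.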
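Wherever viability, T/C is given: 100% = DMSO vehicle control viability.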

C=CC(=O)Nc1cc(Nc2nccc(-c3cn(C)c4ccccc34)n2)c(OC)cc1N(C)CCN(C)C + CCn1c(-c2cc(N3CCN(C)CC3)cnc2C(C)OC)c2c3cc(ccc31)-c1csc(n1)CC(NC(=O)C1CC1C)C(=O)N1CCCC(N1)C(=O)OCC(C)(C)C2
IC50 (second compound 0.000949 µM): > 1 µM | IC50 (second compound 0.003 µM): 0.522 µM | IC50 (second compound 0.00949 µM): 0.216 µM | IC50 (second compound 0.03 µM): 0.00316 µM | IC50 (second compound 0.0949 µM): < 0.00316 µM | IC50 (second compound 0.3 µM): < 0.00316 µM | viability, T/C [1]: 106% | viability, T/C [2]: 102% | viability, T/C [3]: 119% | viability, T/C [4]: 101% | viability, T/C [5]: 84.1% | viability, T/C [6]: 56.3% | viability, T/C [7]: 113% | viability, T/C [8]: 109% | viability, T/C [9]: 104% | viability, T/C [10]: 81.9% | viability, T/C [11]: 54.7% | viability, T/C [12]: 43.7% | viability, T/C [13]: 77.3% | viability, T/C [14]: 80.4% | viability, T/C [15]: 72% | viability, T/C [16]: 63% | viability, T/C [17]: 43.6% | viability, T/C [18]: 28.7% | viability, T/C [19]: 44.4% | viability, T/C [20]: 48.8% | viability, T/C [21]: 48.4% | viability, T/C [22]: 54.9% | viability, T/C [23]: 34.5% | viability, T/C [24]: 32.4% | viability, T/C [25]: 30.8% | viability, T/C [26]: 34.1% | viability, T/C [27]: 36.6% | viability, T/C [28]: 36.9% | viability, T/C [29]: 34.7% | viability, T/C [30]: 33% | viability, T/C [31]: 39.2% | viability, T/C [32]: 33.1% | viability, T/C [33]: 39.1% | viability, T/C [34]: 37.3% | viability, T/C [35]: 33.5% | viability, T/C [36]: 32.5%

CC(C)NCC(C(=O)N1CCN(c2ncnc3c2C(C)CC3O)CC1)c1ccc(Cl)cc1 (stereo not drawn) + CCn1c(-c2cc(N3CCN(C)CC3)cnc2C(C)OC)c2c3cc(ccc31)-c1csc(n1)CC(NC(=O)C1CC1C)C(=O)N1CCCC(N1)C(=O)OCC(C)(C)C2
IC50 (second compound 0.000949 µM): 7.56 µM | IC50 (second compound 0.003 µM): 5.48 µM | IC50 (second compound 0.00949 µM): 2.38 µM | IC50 (second compound 0.03 µM): < 0.0316 µM | IC50 (second compound 0.0949 µM): < 0.0316 µM | IC50 (second compound 0.3 µM): < 0.0316 µM | viability, T/C [3]: 109% | viability, T/C [4]: 106% | viability, T/C [5]: 102% | viability, T/C [6]: 106% | viability, T/C [37]: 78.2% | viability, T/C [38]: 41% | viability, T/C [9]: 113% | viability, T/C [10]: 107% | viability, T/C [11]: 103% | viability, T/C [12]: 105% | viability, T/C [39]: 67.5% | viability, T/C [40]: 30.9% | viability, T/C [15]: 96.1% | viability, T/C [16]: 85.1% | viability, T/C [17]: 81.7% | viability, T/C [18]: 82.1% | viability, T/C [41]: 39.6% | viability, T/C [42]: 21.6% | viability, T/C [21]: 50.8% | viability, T/C [22]: 40% | viability, T/C [23]: 36.5% | viability, T/C [24]: 47.7% | viability, T/C [43]: 26.1% | viability, T/C [44]: 14.5% | viability, T/C [27]: 43.7% | viability, T/C [28]: 34.9% | viability, T/C [29]: 33.3% | viability, T/C [30]: 25.9% | viability, T/C [45]: 22% | viability, T/C [46]: 11.1% | viability, T/C [33]: 52% | viability, T/C [34]: 29.9% | viability, T/C [35]: 32.8% | viability, T/C [36]: 26.6% | viability, T/C [47]: 19.4% | viability, T/C [48]: 11.1%

CC(Nc1ccc2c(c1)OCCn1cc(N3C(=O)OCC3C(F)F)nc1-2)C(N)=O (stereo not drawn) + CCn1c(-c2cc(N3CCN(C)CC3)cnc2C(C)OC)c2c3cc(ccc31)-c1csc(n1)CC(NC(=O)C1CC1C)C(=O)N1CCCC(N1)C(=O)OCC(C)(C)C2
IC50 (second compound 0.000949 µM): > 10 µM | IC50 (second compound 0.003 µM): > 10 µM | IC50 (second compound 0.00949 µM): 0.281 µM | IC50 (second compound 0.03 µM): < 0.0316 µM | IC50 (second compound 0.0949 µM): < 0.0316 µM | IC50 (second compound 0.3 µM): < 0.0316 µM | viability, T/C [3]: 114% | viability, T/C [4]: 106% | viability, T/C [5]: 103% | viability, T/C [6]: 117% | viability, T/C [37]: 94.6% | viability, T/C [38]: 74.5% | viability, T/C [9]: 109% | viability, T/C [10]: 99.5% | viability, T/C [11]: 85.5% | viability, T/C [12]: 83.2% | viability, T/C [39]: 91.4% | viability, T/C [40]: 69% | viability, T/C [15]: 90.9% | viability, T/C [16]: 63.5% | viability, T/C [17]: 48.4% | viability, T/C [18]: 48.9% | viability, T/C [41]: 47.7% | viability, T/C [42]: 48% | viability, T/C [21]: 37.4% | viability, T/C [22]: 41.2% | viability, T/C [23]: 28.6% | viability, T/C [24]: 37.1% | viability, T/C [43]: 38.1% | viability, T/C [44]: 28.2% | viability, T/C [27]: 33.3% | viability, T/C [28]: 31.9% | viability, T/C [29]: 28.7% | viability, T/C [30]: 25.9% | viability, T/C [45]: 23.2% | viability, T/C [46]: 25.3% | viability, T/C [33]: 37.8% | viability, T/C [34]: 40.5% | viability, T/C [35]: 27.5% | viability, T/C [36]: 29.3% | viability, T/C [47]: 25.3% | viability, T/C [48]: 23.5%

O=C(c1ccc(F)c(F)c1Nc1ccc(I)cc1F)N1CC(O)([C@@H]2CCCCN2)C1 + CCn1c(-c2cc(N3CCN(C)CC3)cnc2C(C)OC)c2c3cc(ccc31)-c1csc(n1)CC(NC(=O)C1CC1C)C(=O)N1CCCC(N1)C(=O)OCC(C)(C)C2
IC50 (second compound 0.000949 µM): 0.0414 µM | IC50 (second compound 0.003 µM): 0.0226 µM | IC50 (second compound 0.00949 µM): 0.00667 µM | IC50 (second compound 0.03 µM): < 0.00316 µM | IC50 (second compound 0.0949 µM): < 0.00316 µM | IC50 (second compound 0.3 µM): < 0.00316 µM | viability, T/C [1]: 115% | viability, T/C [2]: 87.5% | viability, T/C [3]: 58.6% | viability, T/C [4]: 27% | viability, T/C [5]: 12.1% | viability, T/C [6]: 3.52% | viability, T/C [7]: 101% | viability, T/C [8]: 73.3% | viability, T/C [9]: 39% | viability, T/C [10]: 20.6% | viability, T/C [11]: 5.3% | viability, T/C [12]: 2.66% | viability, T/C [13]: 66.8% | viability, T/C [14]: 39.9% | viability, T/C [15]: 24.2% | viability, T/C [16]: 15.7% | viability, T/C [17]: 2.25% | viability, T/C [18]: 2.11% | viability, T/C [19]: 32.5% | viability, T/C [20]: 30.3% | viability, T/C [21]: 21.2% | viability, T/C [22]: 3.47% | viability, T/C [23]: 1.98% | viability, T/C [24]: 1.79% | viability, T/C [25]: 30.1% | viability, T/C [26]: 19.2% | viability, T/C [27]: 4.14% | viability, T/C [28]: 1.63% | viability, T/C [29]: 1.65% | viability, T/C [30]: 1.53% | viability, T/C [31]: 25.9% | viability, T/C [32]: 18.8% | viability, T/C [33]: 2.37% | viability, T/C [34]: 1.55% | viability, T/C [35]: 1.12% | viability, T/C [36]: 1.16%
